US20240210394A1, “MICROORGANISM CAPTURE FROM ANTIMICROBIAL-CONTAINING SOLUTION” (MOMENTUM BIOSCIENCE LIMITED, priority 2019, published 2024)

Key:
[1] = tested on: E. coli; test: Blood culture time to positivity (flip time), bead rescue vs no-rescue control; format: cell-based; details: Meropenem 49 mg/L blood; for Flip time: Bead rescue; for Flip time in Days: Control (FA plus bottle)
Method: (§1) Day 1: Prepare overnight culture of test organism in blood/broth medium (50:50 blood:broth) and incubate at 37° C. in a shaking incubator.
Day 2: Prepare ten-fold serial dilution of overnight culture in blood/broth as required and incubate at 37° C. for 2 h for outgrowth.
Add 5 mL of spiked blood+beads (set 1) and 5 mL of spiked blood/Abx+beads (set 3) to blood culture bottles (BioMerieux SA culture bottle) using a vial adapter (West Pharmaceutical Services, Inc. PA, US).
Remove the adaptor and incubate the blood culture bottles in the automated blood culture cabinet (BacT/ALERT BioMerieux) for up to 5 days.
(§2) Record the “Flip” time of each bottle or bottle result at the end of 5 days incubation. The “Flip” time is when a bottle turns positive as determined by the automated blood culture cabinet, which records time to positivity.
(§3) Day 1: Prepare overnight culture of test organism in blood/broth medium (50:50 blood:broth) and incubate at 37° C. (or 30° C. for C. neoformans) in a shaking incubator.
(or 30° C. for C. neoformans) for 2 h for outgrowth. • Antibiotic added to whole blood (defibrinated horse blood) at required level • Whole blood as no-antibiotic control • Test dilution(s) of organism added to blood+antibiotic or blood only at 10 μL per mL of blood (sufficient prepared for experiment requirements) • 100 μL plate count sample taken (TO sample) • 2-hour incubation (static) at 37° C. (or 30° C. for C. neoformans) • 100 μL plate count sample taken (T2 sample) • 5 mL of spiked blood+abx or blood only added to blood culture bottle (using vial adapter) and incubation started (adapter removed) • 5 mL of spiked blood+abx or blood only (from same source) treated with Momentum Capture Beads as below: • 1. Capture Beads diluted in the relevant Capture Reagent—50 μL beads:700 μL capture reagent per clean-up • 2. 750 μL of diluted beads added to 50 mL conical centrifuge tube • 3. 5 mL of transfer medium added to tube • 4. 5 mL of spiked blood+abx or blood only added to tube • 5. […] Magnetise on V&P magnet for 10 min then remove supernatant • 7. Resuspend beads in 1 mL Detergent-free Wash Buffer (DWB) off magnet and transfer to 2 mL Eppendorf flip-top tube on DynaMag-2 magnet • 8. Magnetise for 3 min then remove supernatant • 9. Resuspend beads in 1 mL Detergent-free Wash Buffer (DWB) off magnet then replace on DynaMag-2 magnet • 10. Magnetise for 3 min then remove supernatant • 11. Resuspend beads in 1 mL DWB, add to new blood culture bottle (using vial adapter) and start incubation (adapter removed)
Momentum Capture Beads diluted in the relevant Capture Reagent—50 μL beads:700 μL capture reagent per clean-up • 2. 750 μL of diluted beads added to 50 mL conical centrifuge tube • 3. 5 mL of transfer medium added to tube • 4. 5 mL of spiked blood+abx or blood only added to tube • 5. […] Magnetise on V&P magnet for 10 min then remove supernatant • 7. Resuspend beads in 1 mL Detergent-free Wash Buffer (DWB) off magnet and transfer to 2 mL Eppendorf flip-top tube on DynaMag-2 magnet • 8. Magnetise for 3 min then remove supernatant • 9. Resuspend beads in 1 mL Detergent-free Wash Buffer (DWB) off magnet then replace on DynaMag-2 magnet • 10. Magnetise for 3 min then remove supernatant • 11. Resuspend beads in 1 mL DWB, add to an unused blood culture bottle (BioMerieux FA+culture bottle) using vial adapter and start incubation (adapter removed)

[2] = tested on: E. coli; details: cited from earlier work
[3] = tested on: Klebsiella pneumoniae; details: K. pneumoniae; cited from earlier work
[4] = tested on: Pseudomonas aeruginosa; test: Blood culture time to positivity (flip time), bead rescue vs no-rescue control; format: cell-based; details: Meropenem 49 mg/L blood
Method: as §3
(§4) (or 30° C. for C. neoformans) for 2 h for outgrowth. • Antibiotic added to whole blood (defibrinated horse blood) at required level • Whole blood as no-antibiotic control • Test dilution(s) of organism added to blood+antibiotic or blood only at 10 μL per mL of blood (sufficient prepared for experiment requirements) • 100 μL plate count sample taken (TO sample) • 2-hour incubation (static) at 37° C. (or 30° C. for C. neoformans) • 100 μL plate count sample taken (T2 sample) • 5 mL of spiked blood+abx or blood only added to blood culture bottle (using vial adapter) and incubation started (adapter removed) • 5 mL of spiked blood+abx or blood only (from same source) treated with Momentum Capture Beads as below: • 1. Capture Beads diluted in the relevant Capture Reagent—50 μL beads:700 μL capture reagent per clean-up • 2. 750 μL of diluted beads added to 50 mL conical centrifuge tube • 3. 5 mL of transfer medium added to tube • 4. 5 mL of spiked blood+abx or blood only added to tube • 5. Incubate on ITL TherMix (32.5° C./30 min/1000 rpm—ramped speed protocol) • 6. Magnetise on V&P magnet for 10 min then remove supernatant • 7. Resuspend beads in 1 mL Detergent-free Wash Buffer (DWB) off magnet and transfer to 2 mL Eppendorf flip-top tube on DynaMag-2 magnet • 8. Magnetise for 3 min then remove supernatant • 9. Resuspend beads in 1 mL Detergent-free Wash Buffer (DWB) off magnet then replace on DynaMag-2 magnet • 10. Magnetise for 3 min then remove supernatant • 11. Resuspend beads in 1 mL DWB, add to new blood culture bottle (using vial adapter) and start incubation (adapter removed)
as §2, §1
(§5) Momentum Capture Beads diluted in the relevant Capture Reagent—50 μL beads:700 μL capture reagent per clean-up • 2. 750 μL of diluted beads added to 50 mL conical centrifuge tube • 3. 5 mL of transfer medium added to tube • 4. 5 mL of spiked blood+abx or blood only added to tube • 5. Incubate on ITL TherMix (32.5° C./30 min/1000 rpm—ramped speed protocol) • 6. Magnetise on V&P magnet for 10 min then remove supernatant • 7. Resuspend beads in 1 mL Detergent-free Wash Buffer (DWB) off magnet and transfer to 2 mL Eppendorf flip-top tube on DynaMag-2 magnet • 8. Magnetise for 3 min then remove supernatant • 9. Resuspend beads in 1 mL Detergent-free Wash Buffer (DWB) off magnet then replace on DynaMag-2 magnet • 10. Magnetise for 3 min then remove supernatant • 11. Resuspend beads in 1 mL DWB, add to an unused blood culture bottle (BioMerieux FA+culture bottle) using vial adapter and start incubation (adapter removed)

[5] = tested on: Klebsiella pneumoniae; test: as above; format: cell-based; details: Meropenem 49 mg/L blood; for Flip time: Bead rescue; for Flip time in Days: Control (FA plus bottle)
Method: as §3, §4, §2, §1, §5

[6] = tested on: Pseudomonas aeruginosa; details: P. aeruginosa; cited from earlier work

## C[C@@H](O)[C@H]1C(=O)N2C(C(=O)O)=C(S[C@@H]3CN[C@H](C(=O)N(C)C)C3)[C@H](C)[C@H]12 [Meropenem]
[1]; 900 cfu/5 mL blood
  Flip time: 0.56 days
  Flip time in Days: Neg
[1]; 150000 cfu/5 mL blood
  Flip time: 0.46 days
  Flip time in Days: Neg
[1]; 1500000 cfu/5 mL blood
  Flip time: 0.43 days
  Flip time in Days: Neg
[2]
  MIC: ≤1 mg/L
[3]
  MIC: ≤1 mg/L
[4]; Bead rescue, 1250 cfu/5 mL blood
  Flip time: 0.81 days
[4]; Bead rescue, 200000 cfu/5 mL blood
  Flip time: 0.54 days
[4]; Bead rescue, 2000000 cfu/5 mL blood
  Flip time: 0.46 days
[4]; Control (FA plus bottle), 1250 cfu/5 mL blood
  Flip time in Days: Neg
[4]; Control (FA plus bottle), 200000 cfu/5 mL blood
  Flip time: 0.9 days
[4]; Control (FA plus bottle), 2000000 cfu/5 mL blood
  Flip time: 0.81 days
[5]; 125000 cfu/5 mL blood
  Flip time: 0.43 days
  Flip time in Days: Neg
[5]; 1250000 cfu/5 mL blood
  Flip time: 0.38 days
  Flip time in Days: Neg
[6]
  MIC: ≤1 mg/L
